# Measurements published in patent publication US10519134B2, “Pyrazole compounds and methods of making and using same” (Lundbeck La Jolla Research Center, Inc., priority 2015, dated 2019).
# Key:
# [1] = target: T1, FAAH (Mus musculus, UniProt O08914); experiment: In vitro competitive activity-based protein profiling (mouse), FAAH gel band; format: biochemical; settings: for inhibition at 1 µM: read-out: FAAH % inh. 1 μM; for IC50: mouse
# T1 construct: Proteomes (mouse brain membrane fraction or cell lysates); from tissue; host or cells: mouse brain membrane fraction (or cell lysates)
# T1 sequence (O08914 1-579): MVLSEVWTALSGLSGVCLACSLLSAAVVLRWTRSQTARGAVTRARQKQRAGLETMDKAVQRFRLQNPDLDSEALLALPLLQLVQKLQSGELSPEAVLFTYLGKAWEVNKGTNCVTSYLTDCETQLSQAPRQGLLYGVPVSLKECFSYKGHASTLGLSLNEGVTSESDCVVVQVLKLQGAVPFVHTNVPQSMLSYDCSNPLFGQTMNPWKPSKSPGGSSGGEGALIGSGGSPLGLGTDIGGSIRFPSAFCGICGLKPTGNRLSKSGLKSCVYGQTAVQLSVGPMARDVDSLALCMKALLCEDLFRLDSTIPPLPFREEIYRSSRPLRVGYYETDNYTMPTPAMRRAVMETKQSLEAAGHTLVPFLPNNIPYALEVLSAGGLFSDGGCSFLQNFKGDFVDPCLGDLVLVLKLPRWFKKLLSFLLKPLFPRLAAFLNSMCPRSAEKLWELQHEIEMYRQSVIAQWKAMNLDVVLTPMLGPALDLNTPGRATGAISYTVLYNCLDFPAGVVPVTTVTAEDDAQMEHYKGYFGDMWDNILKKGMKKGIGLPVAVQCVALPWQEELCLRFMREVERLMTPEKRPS
# How it was run: (§1)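 Residual enzyme activity is taken from in-gel fluorescence after SDS-PAGE. Proteome from mouse brain membranes or cell lysates (total protein 1.0 mg/mL) sees inhibitor for 30 min, then FP-Rh or HT-01 probe (50 μM DMSO stock) for 30 min, both steps at 37 °C.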
# [2] = target: T2, MAGL (Homo sapiens, UniProt Q99685); experiment: In vitro competitive activity-based protein profiling (human), MAGL gel band; format: biochemical
# T2 construct: Proteomes (human prefrontal cortex or cell membrane fractions); from tissue; host or cells: human prefrontal cortex (or cell membrane fractions)
# T2 sequence (Q99685 1-303): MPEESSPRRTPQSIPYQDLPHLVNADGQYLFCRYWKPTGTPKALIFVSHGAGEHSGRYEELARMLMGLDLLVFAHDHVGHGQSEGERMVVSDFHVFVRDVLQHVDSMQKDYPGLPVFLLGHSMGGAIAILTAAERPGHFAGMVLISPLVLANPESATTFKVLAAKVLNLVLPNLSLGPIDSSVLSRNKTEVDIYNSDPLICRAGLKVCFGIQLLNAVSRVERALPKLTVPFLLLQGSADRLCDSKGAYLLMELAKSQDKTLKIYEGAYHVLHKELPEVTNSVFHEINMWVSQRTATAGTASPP
# How it was run: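 Human prefrontal cortex or cell membrane proteomes (1.0-2.0 mg/mL protein) preincubated with inhibitors 30 min at 37° C, then labelled with FP-Rh or JW912 probe 30 min at room temperature. Residual MAGL activity read as fluorescent gel-band intensity after SDS-PAGE.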
# [3] = target: T3, MAGL (Mus musculus, UniProt O35678); experiment: Mouse brain proteomes from inhibitor treated mice (oral gavage, sacrificed 4 h after administration); format: in vivo; settings: read-out: MAGL % inh. 5 mg/kg
# T3 construct: Proteomes (mouse brain membrane fraction or cell lysates); from tissue; host or cells: mouse brain membrane fraction (or cell lysates)
# T3 sequence (O35678 1-303): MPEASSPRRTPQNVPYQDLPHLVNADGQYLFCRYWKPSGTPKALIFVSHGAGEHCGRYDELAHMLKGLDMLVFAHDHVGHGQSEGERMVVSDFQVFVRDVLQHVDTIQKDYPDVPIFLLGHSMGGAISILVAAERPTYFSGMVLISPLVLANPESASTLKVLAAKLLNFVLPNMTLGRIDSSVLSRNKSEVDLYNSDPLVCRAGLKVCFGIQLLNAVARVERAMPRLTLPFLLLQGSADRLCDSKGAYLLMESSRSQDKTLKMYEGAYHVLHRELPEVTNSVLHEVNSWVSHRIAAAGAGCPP
# How it was run: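 Brains were collected 4 h after oral gavage dosing of wild-type C57Bl/6J mice, vehicle polyethylene glycol. Proteomes from these brains were then analyzed for MAGL and other serine hydrolase activity.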
# [4] = target: T3, MAGL; experiment: In vitro competitive activity-based protein profiling (mouse), MAGL gel band; format: biochemical; settings: for inhibition at 1 µM: read-out: MAGL % inh. 1 μM; for IC50: mouse
# How it was run: as §1
inhibition at 1 µM [1],IC50 [2],inhibition at 5 mg/kg [3],inhibition at 1 µM [4],IC50 [1],IC50 [4],Structure (SMILES)
0 to 25%,≤ 100 nM,25 to 50%,≥ 75%,1000 to 10000 nM,100 to 1000 nM,"CS(=O)(=O)Nc1ccn(C(=O)N2CCN(Cc3cc(Cl)ccc3N3CCOCC3)CC2)n1 [Example 123, N-(1-(4-(5-chloro-2-morpholinobenzyl)piperazine-1-carbonyl)-1H-pyrazol-3-yl) methanesulfonamide]"
0 to 25%,≤ 100 nM,≥ 75%,≥ 75%,1000 to 10000 nM,≤ 100 nM,"CS(=O)(=O)Nc1ccn(C(=O)N2CCN(Cc3ccc(N4CCCC4)c(C(F)(F)F)c3)CC2)n1 [Example 152, N-(1-(4-(4-(pyrrolidin-1-yl)-3-(trifluoromethyl)benzyl)piperazine-1-carbonyl)-1H-pyrazol-3-yl) methanesulfonamide]"
0 to 25%,≤ 100 nM,≥ 75%,≥ 75%,1000 to 10000 nM,≤ 100 nM,"CS(=O)(=O)Nc1ccn(C(=O)N2CCN(Cc3cc(N4CCCC4)cc(C(F)(F)F)c3)CC2)n1 [Example 156, N-(1-(4-(3-(pyrrolidin-1-yl)-5-(trifluoromethyl)benzyl)piperazine-1-carbonyl)-1H-pyrazol-3-yl) methanesulfonamide]"
0 to 25%,≤ 100 nM,≥ 75%,≥ 75%,,,"CS(=O)(=O)Nc1ccn(C(=O)N2CCN(Cc3ccc(Cl)c(N4CCCC4)c3)CC2)n1 [Example 165, N-(1-(4-(4-chloro-3-(pyrrolidin-1-yl)benzyl)piperazine-1-carbonyl)-1H-pyrazol-3-yl) methanesulfonamide]"
0 to 25%,≤ 100 nM,≥ 75%,≥ 75%,,,"CS(=O)(=O)Nc1ccn(C(=O)N2CCN(Cc3ccc(C(F)(F)F)cc3N3CCC3)CC2)n1 [Example 175, N-(1-(4-(2-(azetidin-1-yl)-4-(trifluoromethyl)benzyl)piperazine-1-carbonyl)-1H-pyrazol-3-yl) methanesulfonamide]"
0 to 25%,≤ 100 nM,≥ 75%,≥ 75%,1000 to 10000 nM,≤ 100 nM,"CS(=O)(=O)Nc1ccn(C(=O)N2CCN(Cc3ccc(C(F)(F)F)cc3N3CCCC3)CC2)n1 [Example 188, N-(1-(4-(2-(pyrrolidin-1-yl)-4-(trifluoromethyl)benzyl)piperazine-1-carbonyl)-1H-pyrazol-3-yl) methanesulfonamide]"
0 to 25%,≤ 100 nM,≥ 75%,≥ 75%,,,"CC1CCCN1c1cc(CN2CCN(C(=O)n3ccc(NS(C)(=O)=O)n3)CC2)ccc1Cl (centres unmarked) [Example 200, N-(1-(4-(4-chloro-3-(2-methylpyrrolidin-1-yl)benzyl)piperazine-1-carbonyl)-1H-pyrazol-3-yl) methanesulfonamide]"
0 to 25%,≤ 100 nM,≥ 75%,≥ 75%,,,"CS(=O)(=O)Nc1ccn(C(=O)N2CCN(Cc3ccc(Cl)c(N4CCC(F)CC4)c3)CC2)n1 [Example 201, N-(1-(4-(4-chloro-3-(4-fluoropiperidin-1-yl)benzyl)piperazine-1-carbonyl)-1H-pyrazol-3-yl) methanesulfonamide]"
0 to 25%,≤ 100 nM,0 to 25%,≥ 75%,,,"CS(=O)(=O)Nc1ccn(C(=O)N2CCN(Cc3ccc(Cl)c(N4CCN(C5CC5)CC4)c3)CC2)n1 [Example 202, N-(1-(4-(4-chloro-3-(4-cyclopropylpiperazin-1-yl)benzyl)piperazine-1-carbonyl)-1H-pyrazol-3-yl) methanesulfonamide]"
0 to 25%,≤ 100 nM,0 to 25%,≥ 75%,1000 to 10000 nM,≤ 100 nM,"CS(=O)(=O)Nc1ccn(C(=O)N2CCN(Cc3ccc(Cl)c(N4CC5COCC5C4)c3)CC2)n1 (centres unmarked) [Example 203, N-(1-(4-(4-chloro-3-(tetrahydro-1H-furo[3,4-c]pyrrol-5(3H)-yl)benzyl)piperazine-1-carbonyl)-1H-pyrazol-3-yl) methanesulfonamide]"

# The remaining lines, values behind:
Structure (SMILES),inhibition at 1 µM [1],IC50 [2],inhibition at 5 mg/kg [3],inhibition at 1 µM [4],IC50 [1],IC50 [4]
"CC(=O)Nc1ccn(C(=O)N2CCC3(CCCN3Cc3ccc(Cl)c(C4CC4)c3)CC2)n1 [Example 111, N-(1-(1-(4-chloro-3-cyclopropylbenzyl)-1,8-diazaspiro[4.5]decane-8-carbonyl)-1H-pyrazol-3-yl)acetamide]",0 to 25%,≤ 100 nM,0 to 25%,≥ 75%,,
"CS(=O)(=O)Nc1ccn(C(=O)N2CCN(Cc3ccc(C(F)(F)F)cc3-c3nncs3)CC2)n1 [Example 114, N-(1-(4-(2-(1,3,4-thiadiazol-2-yl)-4-(trifluoromethyl)benzyl)piperazine-1-carbonyl)-1H-pyrazol-3-yl)methanesulfonamide]",0 to 25%,≤ 100 nM,0 to 25%,≥ 75%,,
"CS(=O)(=O)Nc1ccn(C(=O)N2CCC3(CCCN3Cc3ccc(C(F)(F)F)cc3N3CCCC3)CC2)n1 [Example 125, N-(1-(1-(2-(pyrrolidin-1-yl)-4-(trifluoromethyl)benzyl)-1,8-diazaspiro[4.5]decane-8-carbonyl)-1H-pyrazol-3-yl) methanesulfonamide]",0 to 25%,≤ 100 nM,0 to 25%,≥ 75%,1000 to 10000 nM,≤ 100 nM
"CS(=O)(=O)Nc1ccn(C(=O)N2CCC3(CCCN3Cc3ccc(C(F)(F)F)cc3N3C[C@H]4CC[C@@H](C3)O4)CC2)n1 [Example 136, N-(1-(1-(2-((1R,5S)-8-oxa-3-azabicyclo[3.2.1]octan-3-yl)-4-(trifluoromethyl)benzyl)-1,8-diazaspiro[4.5]decane-8-carbonyl)-1H-pyrazol-3-yl) methanesulfonamide]",0 to 25%,≤ 100 nM,0 to 25%,≥ 75%,1000 to 10000 nM,100 to 1000 nM
"CS(=O)(=O)Nc1ccn(C(=O)N2CCN(Cc3ccc(C(F)(F)F)cc3N3CCC(C(=O)O)CC3)CC2)n1 [Example 186, 1-(2-((4-(3-(methylsulfonamido)-1H-pyrazole-1-carbonyl)piperazin-1-yl)methyl)-5-(trifluoromethyl)phenyl)piperidine-4-carboxylic acid]",0 to 25%,100 to 1000 nM,0 to 25%,≥ 75%,1000 to 10000 nM,100 to 1000 nM
"CS(=O)(=O)Nc1ccn(C(=O)N2CCC3(CCCN3Cc3ccc(C(F)(F)F)cc3N3CC4COCC4C3)CC2)n1 (centres unmarked) [Example 199, N-(1-(1-(2-(tetrahydro-1H-furo[3,4-c]pyrrol-5(3H)-yl)-4-(trifluoromethyl)benzyl)-1,8-diazaspiro[4.5]decane-8-carbonyl)-1H-pyrazol-3-yl) methanesulfonamide]",0 to 25%,≤ 100 nM,25 to 50%,≥ 75%,,
"CS(=O)(=O)Nc1ccn(C(=O)N2CCN(Cc3ccc(Cl)c(N4C5CCC4COC5)c3)CC2)n1 [Example 204, N-(1-(4-(3-(3-oxa-8-azabicyclo[3.2.1]octan-8-yl)-4-chlorobenzyl)piperazine-1-carbonyl)-1H-pyrazol-3-yl) methanesulfonamide]",0 to 25%,≤ 100 nM,0 to 25%,≥ 75%,1000 to 10000 nM,100 to 1000 nM
